#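 All cell lines were grown in 96-well plates and treated with compound for 48 hours. GI50 is the concentration that inhibits growth by half. TGI: concentration producing complete growth inhibition.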
# How the values were obtained:
# Test in all cases: NCI anticancer screen, dose series, 48 h
# SNB-19 CNS = system: SNB-19 CNS
# OVCAR-8 ovarian = system: OVCAR-8 ovarian
# HCC-2998 colon = system: HCC-2998 colon
# HT29 colon = system: HT29 colon
# SF-268 CNS = system: SF-268 CNS
# HOP-62 NSCLC = system: HOP-62 NSCLC
# SK-MEL-28 melanoma = system: SK-MEL-28 melanoma
# OVCAR-4 ovarian = system: OVCAR-4 ovarian
# SK-OV-3 ovarian = system: SK-OV-3 ovarian
# LOX IMVI melanoma = system: LOX IMVI melanoma
# COLO 205 colon = system: COLO 205 colon
# ACHN renal = system: ACHN renal
# NCI-H226 lung = system: NCI-H226 lung
# SNB-75 CNS = system: SNB-75 CNS
# T-47D breast = system: T-47D breast
# PC-3 prostate = system: PC-3 prostate
# KM12 colon = system: KM12 colon
# TK-10 renal = system: TK-10 renal
# SN12C renal = system: SN12C renal
# K-562 leukemia = system: K-562 leukemia
# A498 renal = system: A498 renal
# MOLT-4 leukemia = system: MOLT-4 leukemia
# BT-549 breast = system: BT-549 breast
# NCI/ADR-RES ovarian = system: NCI/ADR-RES ovarian
# EKVX NSCLC = system: EKVX NSCLC
# IGROV1 ovarian = system: IGROV1 ovarian
# UACC-257 melanoma = system: UACC-257 melanoma
compound,measurement,setting,value
COc1ccc(/C=N/NC2=NC3C(S2)N(C)C(=O)N3C)cc1 (stereo not drawn),GI50,SNB-19 CNS,4.12 µM
same,TGI,SNB-19 CNS,> 100 µM
same,GI50,OVCAR-8 ovarian,7.65 µM
same,TGI,OVCAR-8 ovarian,> 100 µM
same,GI50,HCC-2998 colon,6.91 µM
same,TGI,HCC-2998 colon,36 µM
same,GI50,HT29 colon,2.15 µM
same,TGI,HT29 colon,5.1 µM
same,GI50,SF-268 CNS,5.37 µM
same,TGI,SF-268 CNS,> 100 µM
same,GI50,HOP-62 NSCLC,4.12 µM
same,TGI,HOP-62 NSCLC,> 100 µM
same,GI50,SK-MEL-28 melanoma,7.7 µM
same,TGI,SK-MEL-28 melanoma,> 100 µM
same,GI50,OVCAR-4 ovarian,7.95 µM
same,TGI,OVCAR-4 ovarian,> 100 µM
same,GI50,SK-OV-3 ovarian,4.27 µM
same,TGI,SK-OV-3 ovarian,> 100 µM
same,GI50,LOX IMVI melanoma,3.79 µM
same,TGI,LOX IMVI melanoma,> 100 µM
same,GI50,COLO 205 colon,4.25 µM
same,TGI,COLO 205 colon,25 µM
same,GI50,ACHN renal,5.27 µM
same,TGI,ACHN renal,> 100 µM
same,GI50,NCI-H226 lung,4.58 µM
same,TGI,NCI-H226 lung,> 100 µM
same,GI50,SNB-75 CNS,1.75 µM
same,TGI,SNB-75 CNS,6.26 µM
same,GI50,T-47D breast,4.5 µM
same,TGI,T-47D breast,> 100 µM
same,GI50,PC-3 prostate,4.76 µM
same,TGI,PC-3 prostate,> 100 µM
same,GI50,KM12 colon,4.73 µM
same,TGI,KM12 colon,> 100 µM
same,TGI,TK-10 renal,40.9 µM
same,GI50,SN12C renal,4.17 µM
same,TGI,SN12C renal,> 100 µM
same,GI50,K-562 leukemia,3.12 µM
same,TGI,K-562 leukemia,> 100 µM
same,GI50,A498 renal,5.73 µM
same,TGI,A498 renal,87 µM
same,GI50,MOLT-4 leukemia,3.58 µM
same,TGI,MOLT-4 leukemia,> 100 µM
same,GI50,BT-549 breast,2.71 µM
same,TGI,BT-549 breast,14.2 µM
same,GI50,NCI/ADR-RES ovarian,3.8 µM
same,TGI,NCI/ADR-RES ovarian,27.4 µM
same,GI50,EKVX NSCLC,8.03 µM
same,TGI,EKVX NSCLC,> 100 µM
same,GI50,IGROV1 ovarian,4.72 µM
same,TGI,IGROV1 ovarian,> 100 µM
same,GI50,UACC-257 melanoma,5.01 µM
same,TGI,UACC-257 melanoma,> 100 µM
